Data as given in patent US10751329B2, “Treatment of CDKL5 disorders with GSK3β inhibitor tideglusib” (priority 2016, dated 2020).

Assays:
Cdkl5^−/Y mice [1] = assay: Dendritic development of granule cells (DCX and Golgi staining); type: in vivo; details: 20 mg/kg s.c. every other day from P25, P45
Method: After weaning, mice were housed three to five per cage and were on a 12-hour (h) light/dark cycle in a temperature-controlled environment with food and water provided ad libitum. […] Animals were sacrificed 4 hours after the last injection on P45.

Cdkl5^−/Y mice [2] = assay: Passive avoidance (PA) test; type: in vivo; details: at the end of treatment
Method: Starting from postnatal day 25 (P25), Cdkl5^+/Y WT and Cdkl5^−/Y KO male mice were treated with vehicle (corn oil; Sigma-Aldrich) or NP-12 (20 mg/kg; Sigma-Aldrich), administered by subcutaneous injection every other day for 20 days. […] For the PA test we used a tilting-floor box (47×18×26 cm) divided into two compartments by a sliding door and a control unit incorporating a shocker (Ugo Basile, Italy). This classic instrument for Pavlovian conditioning exploits the tendency in mice to escape from an illuminated area into a dark one (step-through method). On the first day mice were individually placed into the illuminated compartment. After 60 seconds of habituation period, the connecting door between the chambers opened. In general, mice step quickly through the gate and enter the dark compartment because mice prefer to be in the dark. Upon entering the dark compartment, mice received a brief foot shock (0.7 mA for 3 seconds) and were removed from the chamber after 15 seconds of latency. If the mouse remained in the light compartment for the duration of the trial (358 s), the door closed and the mouse was removed from the light compartment. […] After a 24 hour retention period, mice were placed back into the light compartment and the time it took them to re-enter the dark compartment (latency) was measured up to 358 seconds.

Cdkl5^−/Y mice [3] = assay: Neuronal survival in the dentate gyrus (cleaved caspase-3, DCX immunohistochemistry); type: in vivo; details: 20 mg/kg s.c. every other day from P25, P45
From the text: (B,C) Examples of sections processed for DCX immunostaining from the dentate gyrus (DG) of untreated and treated Cdkl5^+/Y and Cdkl5^−/Y male mice. (C). […] Scale bar=30 μm; type 2b/3 cells and immature neurons were counted separately. (B) Number of DCX-positive type 2b/3 precursor cells and DCX-positive immature neurons in the DG of mice of untreated (+/Y n=3, −/Y n=3) and treated (+/Y n=3, −/Y n=3) Cdkl5 mice. Values in A represent totals for one DG (mean±SD), data in B are expressed as number of cells/100 μm. *p<0.05; **p<0.01 as compared to the untreated Cdkl5^+/Y condition; ##p<0.01; ###p<0.001 as compared to the untreated Cdkl5^−/Y samples (Duncan's test after ANOVA). Abbreviations: GR, granular layer; SGZ, subgranular zone.
The day of birth was designed as postnatal day (P) zero (P0) and animals with 24 hours of age were considered as one-day-old animals (P1). After weaning, mice were housed three to five per cage and were on a 12-hour (h) light/dark cycle in a temperature-controlled environment with food and water provided ad libitum. […]
One out of 6 sections from the hippocampal formation were used for immunohistochemistry for cleaved caspase-3 (1:200, anti-cleaved caspase-3 rabbit polyclonal Ab, Cell Signaling Technology), doublecortin (1:100, anti-DCX goat polyclonal Ab, Santa Cruz Biotechnology), synaptophysin (1:1000, anti-SYN (SY38) mouse monoclonal Ab, MAB 5258, Merck Millipore) and PSD-95 (1:1000, anti-PSD-95 rabbit polyclonal Ab, Abcam) or double fluorescence immunohistochemistry for synaptophysin, and PSD-95. […]
The total number of positive cells in the DG (cleaved caspase-3, DCX) was estimated by multiplying the total number counted in the series of sampled sections by the inverse of the section sampling fraction (ssf=⅙). The total number of cells of each phenotype was estimated by multiplying the number counted in the series of sections by the inverse of the section sampling fraction (ssf=⅙).

GSK3β = assay: Western blot of P-GSK3β-Ser9, GSK3β and β-catenin in hippocampal extracts of treated mice; details: 20 mg/kg s.c. every other day from P25, P45
Cdkl5^−/Y mice [4] = assay: Spine density and morphology of Golgi-stained granule cells; type: in vivo; details: 20 mg/kg s.c. every other day from P25, P45
Method: (B) Images of Golgi-stained dendritic branches of granule cells of untreated and treated Cdkl5^+/Y and Cdkl5^−/Y male mice. […] The day of birth was designed as postnatal day (P) zero (P0) and animals with 24 hours of age were considered as one-day-old animals (P1). After weaning, mice were housed three to five per cage and were on a 12-hour (h) light/dark cycle in a temperature-controlled environment with food and water provided ad libitum. […] Animals were sacrificed 4 hours after the last injection on P45. Brains were Golgi-stained using the FD Rapid Golgi Stain™ Kit (FD NeuroTechnologies, Inc., Columbia, Md., USA). […] In Golgi-stained sections, spines of granule cells were counted using a 100× oil immersion objective lens. Dendritic spine density was measured by manually counting the number of dendritic spines on dendritic segments in the inner and outer half of the molecular layer and expressed as the number of dendritic spines per 20 μm dendritic length. The dendritic spine length was measured by manually drawing a vertical line from the tip of the protrusion to the point where it met the dendritic shaft. The number of spine clusters was counted manually on dendritic segments in the inner and outer half of the molecular layer and expressed as number of spine clusters per 20 μm dendritic length. […] The number of spines belonging to the different group was counted.

[5] = test system: GSK3β Ser9-phosphorylation in hippocampal neurons from Cdkl5 KO mice; assay: Western blot of P-GSK3β-Ser9 in hippocampal neuronal cultures (DIV10); type: cell-based; details: chronic treatment 1 μm from DIV2, DIV10
Method: Hippocampal cultures were treated with 1 μm NP-12 starting from DIV2. […] Values are represented as means±SD. *p<0.05 as compared to the untreated Cdkl5^+/Y condition; #p<0.05; ##p<0.01 as compared to the untreated Cdkl5^−/Y samples (Duncan's test after ANOVA).
Hippocampal neurons were prepared from postnatal day 1 (P1) Cdkl5^−/Y and Cdkl5^X/Y male mice. Briefly, hippocampi were dissected from mouse brains under a dissection microscope and treated with trypsin (Sigma Aldrich) for 15 min at 37° C. and DNase (Sigma Aldrich) for 2 min at room temperature before triturating mechanically with fire-polished glass pipette to obtain a single-cell suspension. Approximately 1.2×10^5 cells were plated on coverslips coated with poly-1-lysine in 12-well plates and cultures in Neurobasal medium (Invitrogen) supplemented with B27 (Invitrogen) and glutamine (Invitrogen). Cells were maintained in vitro at 37° C. in a 5% CO2-humified incubator and fixed for immunostaining or Western Blot analysis at 10 days after plating (DIV10). 1 μM NP-12 (Sigma) was administrated on alternate days.
For Western Blot analysis hippocampal neurons at DIV10 were lysed in ice-cold RIPA lysis buffer (50 mM Tris-HCl pH 7.4, 150 mM NaCl, 1% Triton-X100, 0.5% sodium deoxycholate, 0.1% SDS) supplemented with 1 mM PMSF and 1% proteases and phosphatases inhibitor cocktail (Sigma). […]

CDKL5 KO mice [6] = assay: Neuronal survival and maturation (DCX-positive neurons, dendritic length and branches), juvenile and adult mice; type: in vivo; details: juvenile CDKL5 KO mice (treated from P25, P45)
Method: (§1) FIGS. 22A-22B show an experimental protocol for evaluating the effect of NP-12 in juvenile and adult mice. Starting from postnatal day 25 (P25) for juvenile mice (A) or postnatal day 90 (P90) for adult mice (B), Cdkl5^+/Y and Cdkl5^−/Y male mice were treated with vehicle or NP-12, administered by subcutaneous injection every other day for 20 days. Animals were sacrificed after the last injection (on P45 and P110 for juvenile and adult mice, respectively) or were behaviorally tested. Abbreviations: +/Y: wildtype male mice; −/Y: Cdkl5 KO male mice; P, postnatal day.
FIGS. 25A-25B show the quantification of the number of DCX-positive postmitotic neurons in the dentate gyrus of vehicle treated and NP-12 treated Cdkl5+/Y and −/Y male mice aged P45 (A) and aged P110 (B). Data are expressed as number of cells/100 μm. Values are represented as means±SE. *p<0.05, **p<0.01, ***p<0.001 as compared to the vehicle-treated Cdkl5+/Y condition; #p<0.05; ##p<0.01, ###p<0.001 as compared to the vehicle-treated Cdkl5 −/Y condition (Duncan's test after ANOVA).
FIGS. 26A-26B show the mean total dendritic length and mean number of dendritic branches of newborn granule cells of vehicle treated and NP-12 treated Cdkl5+/Y and −/Y male mice aged P45 (A) and aged P110 (B).

Cdkl5^−/Y mice [7] = assay: Hippocampal connectivity: SYN and PSD-95 immunoreactivity and puncta in the molecular layer of the DG; type: in vivo; details: 20 mg/kg s.c. every other day from P25, P45
Method: After weaning, mice were housed three to five per cage and were on a 12-hour (h) light/dark cycle in a temperature-controlled environment with food and water provided ad libitum. Starting from postnatal day 25 (P25), Cdkl5^+/Y WT and Cdkl5^−/Y KO male mice were treated with vehicle (corn oil; Sigma-Aldrich) or NP-12 (20 mg/kg; Sigma-Aldrich), administered by subcutaneous injection every other day for 20 days. Animals were sacrificed 4 hours after the last injection on P45.

GSK3β-dependent targets = assay: Western blot of GSK3β-dependent targets (β-catenin, P-CRMP2 Thr-514, P-CREB Ser-133) in hippocampus, juvenile and adult mice; type: in vivo; details: juvenile CDKL5 KO mice (treated from P25, P45)
From the text: Data are expressed as percentage of vehicle treated Cdkl5+/Y mice of the same age. Values are represented as means±SE. *p<0.05, **p<0.01, ***p<0.001 as compared to the vehicle-treated Cdkl5 +/Y condition; #p<0.05; ##p<0.01, ###p<0.001 as compared to the vehicle-treated Cdkl5 −/Y condition (Duncan's test after ANOVA).

Cdkl5^−/Y mice [8] = assay: Granule cell density, number and layer volume in the dentate gyrus; type: in vivo; details: 20 mg/kg s.c. every other day from P25, P45
CDKL5 KO mice [9] = assay: Synapse development (SYN and PSD-95 puncta in the DG), juvenile mice; type: in vivo; details: juvenile CDKL5 KO mice (treated from P25, P45)
Method: as §1
Values are represented as means±SE. *p<0.05, **p<0.01, ***p<0.001 as compared to the vehicle-treated Cdkl5+/Y condition; #p<0.05; ##p<0.01, ###p<0.001 as compared to the vehicle-treated Cdkl5 −/Y condition (Duncan's test after ANOVA).

[10] = test system: hippocampal neurons from Cdkl5 KO mice; assay: Polarization and morphological analysis of MAP2-stained hippocampal neurons; type: cell-based; details: Cdkl5 KO hippocampal cultures; 1 μM, DIV10
From the text: (C-D) Graphs showing the percentage of polarized neurons (C) and the quantification of the length of the longest axon and dendrite (D) in treated and untreated in hippocampal cultures as in A. (E) Representative images of MAP2-stained hippocampal neurons as in A. Data are expressed as fold difference in comparison to hippocampal neurons from untreated Cdkl5^+/Y mice. Values are represented as means±SD. *p<0.05 as compared to the untreated Cdkl5^+/Y condition; #p<0.05; ##p<0.01 as compared to the untreated Cdkl5^−/Y samples (Duncan's test after ANOVA).
Hippocampal neurons were prepared from postnatal day 1 (P1) Cdkl5^−/Y and Cdkl5^X/Y male mice. […]
To define the degree of polarization of neuronal dendrites, we followed the method described by Horton et al. (FIG. 3) (Horton et al. 2006. Brain Cell. Biol. 35:29-38). Briefly, the measured lengths of dendrites (Lm) in each neuron (including the primary dendrite/axon with all its branches) were ranked highest to lowest. […]
The morphological analysis of hippocampal neurons was focused on two parameters: length of the longest dendrite (D1) and total dendritic length. To achieve this aim, dendritic length of MAP2-positive neurons were measured and quantified by tracing along each neuronal projection using the image analysis system Image Pro Plus (Media Cybernetics, Silver Spring, Md. 20910, USA). […]

CDKL5 KO mice [11] = assay: Hippocampus-dependent learning and memory (Morris water maze, passive avoidance), juvenile and adult mice; type: in vivo; details: juvenile CDKL5 KO mice (treated from P25, P45)
Method: Starting from postnatal day 25 (P25) for juvenile mice (A) or postnatal day 90 (P90) for adult mice (B), Cdkl5^+/Y and Cdkl5^−/Y male mice were treated with vehicle or NP-12, administered by subcutaneous injection every other day for 20 days. Animals were sacrificed after the last injection (on P45 and P110 for juvenile and adult mice, respectively) or were behaviorally tested. […] Spatial learning and memory (probe test) assessed with the Morris water maze in vehicle treated and NP-12 treated Cdkl5+/Y and −/Y male mice aged P45 (A) and aged P110 (B). Passive avoidance test (PA) on vehicle treated and NP-12 treated Cdkl5+/Y and −/Y male mice aged P45 (C). Graphs show the latency time to enter the dark compartment on the first day and on the second day of the behavioral procedure. Values are represented as means±SE. *p<0.05, **p<0.01, ***p<0.001 as compared to the vehicle-treated Cdkl5+/Y condition; #p<0.05; ##p<0.01, ###p<0.001 as compared to the vehicle-treated Cdkl5−/Y condition (Duncan's test after ANOVA).

[12] = test system: Cdkl5 KO hippocampal neurons; assay: Synaptophysin (SYN) puncta in hippocampal neuronal cultures; type: cell-based, mice; details: 1 μM every other day, DIV7 to DIV12
Method: Immunostaining for cultured hippocampal neurons were performed with the following procedure. Cells were fixed in 4% PFA+4% sucrose in PBS for 20 min and washed five times in PBS. After permeabilization with PBST cells were incubated overnight at 4° C. o/n with the following antibodies: rabbit polyclonal anti-MAP2 (1:100, Millipore) and SYN (SY38) antibody (1:1000, MAB 5258, Merck Millipore). Sections were then incubated for 2 h at room temperature with a FITC-conjugated goat anti-mouse IgG (1:100; Sigma-Aldrich) and a Cy3-conjugated anti-rabbit IgG (1:100, Jackson Immunoresearch).
To develop the cultures the hippocampal neuronal cells were harvested on postnatal day 1, which was considered division 0 (DIV 0) and cultured in vitro for the remainder of the experiment. […] Results are presented as mean±SD. Data were analyzed with Duncan's test after ANOVA. A probability level of p<0.05 was considered to be statistically significant. *P, 0.05, **P<0.01, ***p<0.001 as compared to the untreated wild-type (Cdkl5+/Y) condition; #p<0.05, ##p<0.01 ###p<0.001 as compared to the untreated Cdkl5 KO (−/Y) samples.

CDKL5 KO mice [13] = details: cited from earlier work

O=c1sn(-c2cccc3ccccc23)c(=O)n1Cc1ccccc1 [NP-12, tideglusib]
dendritic length of newborn (DCX-positive) granule cells (Cdkl5^−/Y mice [1]): increase in both parameters that became similar or even greater than those of untreated Cdkl5^+/Y mice | dendritic length of older Golgi-stained granule cells (Cdkl5^−/Y mice [1]): completely rescued | number of dendritic branches of newborn (DCX-positive) granule cells (Cdkl5^−/Y mice [1]): increase in both parameters that became similar or even greater than those of untreated Cdkl5^+/Y mice | number of dendritic segments of older Golgi-stained granule cells (Cdkl5^−/Y mice [1]): completely rescued | latency time to enter the dark compartment, second day (test) (Cdkl5^−/Y mice [2]; Cdkl5^−/Y mice, 24 hours after shock): underwent an increase and there was no significant difference in comparison to untreated Cdkl5^+/Y mice | latency time to enter the dark compartment, first day (Cdkl5^−/Y mice [2]; all groups): all groups showed similar step-through latencies | cell death: cleaved caspase-3 positive cells in the dentate gyrus (Cdkl5^−/Y mice [3]; Cdkl5 KO male mice): completely restored | survival rate of the postmitotic granule cells (Cdkl5^−/Y mice [3]; Cdkl5^−/Y mice): restores the survival rate of the postmitotic granule cells | number of DCX-positive immature neurons in the dentate gyrus (Cdkl5^−/Y mice [3]; treated mice vs untreated Cdkl5^+/Y): underwent an increase in the number of DCX-positive neurons, that became similar to that of untreated Cdkl5^+/Y littermates | total GSK3β levels in hippocampus (GSK3β): no effect | Ser9-phosphorylated GSK3β levels in hippocampus (GSK3β; Cdkl5^−/Y male mice): increased Ser9-phosphorylated GSK3β levels in Cdkl5^−/Y mice that became even higher to those of the untreated Cdkl5^+/Y counterparts | β-catenin levels in hippocampus (GSK3β; Cdkl5^−/Y male mice): complete recovery of β-catenin levels | dendritic spine density of granule cells (Cdkl5^−/Y mice [4]): no effect on spine density | spine shape morphology (percentage of immature and mature spines) (Cdkl5^−/Y mice [4]; Cdkl5 KO mice): completely restored | GSK3β Ser9-phosphorylation [5]: completely restores GSK3β Ser9-phosphorylation | neuronal survival and maturation (CDKL5 KO mice [6]): restores neuronal survival and maturation in juvenile | density of PSD-95 puncta in the molecular layer of the DG (Cdkl5^−/Y mice [7]): completely restored | density of SYN puncta in the molecular layer of the DG (Cdkl5^−/Y mice [7]): completely restored | optical density of PSD-95 immunoreactivity in the molecular layer of the DG (Cdkl5^−/Y mice [7]): fully rescued | optical density of SYN immunoreactivity in the molecular layer of the DG (Cdkl5^−/Y mice [7]): fully rescued | GSK3β-dependent targets (β-catenin, P-CRMP2 Thr-514, P-CREB Ser-133) (GSK3β-dependent targets): restores GSK3β-dependent targets in juvenile | granule cell density in the dentate gyrus (Cdkl5^−/Y mice [8]): fully restored | total granule cell number in the dentate gyrus (Cdkl5^−/Y mice [8]): fully restored | volume of the granule cell layer (Cdkl5^−/Y mice [8]): without affecting the volume of the granule cell layer | synapse development (SYN and PSD-95 puncta) (CDKL5 KO mice [9]): restores synapse development in juvenile CDKL5 KO mice | axon and dendrite maturation (length of the longest axon and dendrite) [10]: had positive effects on correct axon and dendrite maturation | percentage of polarized neurons [10]: efficiently ameliorated the percentage of polarized neurons | hippocampus-dependent behavior defects (learning and memory) (CDKL5 KO mice [11]): corrects hippocampus-dependent behavior defects in juvenile | number of synaptophysin (SYN) puncta [12]: completely restore

Cn1cc(C2=C(c3ccc(Cl)cc3Cl)C(=O)NC2=O)c2ccccc21 [SB216763]
hippocampal development (CDKL5 KO mice [13]): restore hippocampal development by restoring dendritic development, spine morphology and distribution, survival of newborn granule cells, and connectivity
